The text below walks through data of patent US9783536B2, “Nitrogen-containing heterocyclic compound or salt thereof” (FUJIFILM Corporation, priority 2013, dated 2017).

One test has as its target T1, human PI3Kα protein (Homo sapiens, UniProt P42336).
T1 construct: purchased Carna Biosciences, Inc; host or cells: baculovirus expression system
In words: PI3Kα enzyme assay (ADP-Glo). Format: biochemical. Particulars: read-out: PI3Kα enzyme inhibitory activity. Put shortly: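 Biotinylated human PI3Kα (baculovirus-expressed, 4.5 nmol/L) pre-incubated 15 min with compound in Tris-HCl pH 7.5, MgCl2, BSA; reaction 60 min at 25° C with 50 μmol/L PIP2 and 100 μmol/L ATP final. ADP quantified by ADP-Glo luminescence; IC50 calculated.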
(In general: ADP-Glo turns the ADP formed in a reaction into a luminescent signal.)

Test [1] concerns the target T2, GST fusion human ERK2 protein (Homo sapiens, UniProt P28482).
T2 construct: purchased Carna Biosciences, Inc; host or cells: E. coli expression system
In words: ERK2 enzyme assay (2). Format: biochemical. Particulars: ERK2 enzyme assay (2); read-out: ERK2 enzyme inhibitory activity (2). Put shortly: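 GST-tagged human ERK2 expressed in E. coli (1.25 nmol/L) was preincubated with compound for 15 min at room temperature in pH 7.5 Hepes buffer with MgCl2, DTT and Brij35. Reaction with FL-Peptide 8 (final 4.25 μmol/L) and ATP (final 1 mmol/L) ran 120 min at 25 °C; EDTA stopped it, and phosphorylated peptide was quantified by mobility-shift separation to derive IC50.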

Bounds are passed on as bounds.

T2 sequence (P28482 whole entry, the tested form may be a part): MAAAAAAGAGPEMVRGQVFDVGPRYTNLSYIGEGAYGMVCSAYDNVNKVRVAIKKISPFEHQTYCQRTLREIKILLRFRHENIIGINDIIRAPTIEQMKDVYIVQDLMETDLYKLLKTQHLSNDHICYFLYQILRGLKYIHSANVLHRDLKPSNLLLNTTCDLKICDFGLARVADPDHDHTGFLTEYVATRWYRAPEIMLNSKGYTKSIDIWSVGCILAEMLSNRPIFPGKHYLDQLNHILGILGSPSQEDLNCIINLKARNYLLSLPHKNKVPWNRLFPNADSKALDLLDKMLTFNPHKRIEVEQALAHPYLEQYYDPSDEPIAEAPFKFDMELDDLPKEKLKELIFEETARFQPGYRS
T1 sequence (P42336 whole entry): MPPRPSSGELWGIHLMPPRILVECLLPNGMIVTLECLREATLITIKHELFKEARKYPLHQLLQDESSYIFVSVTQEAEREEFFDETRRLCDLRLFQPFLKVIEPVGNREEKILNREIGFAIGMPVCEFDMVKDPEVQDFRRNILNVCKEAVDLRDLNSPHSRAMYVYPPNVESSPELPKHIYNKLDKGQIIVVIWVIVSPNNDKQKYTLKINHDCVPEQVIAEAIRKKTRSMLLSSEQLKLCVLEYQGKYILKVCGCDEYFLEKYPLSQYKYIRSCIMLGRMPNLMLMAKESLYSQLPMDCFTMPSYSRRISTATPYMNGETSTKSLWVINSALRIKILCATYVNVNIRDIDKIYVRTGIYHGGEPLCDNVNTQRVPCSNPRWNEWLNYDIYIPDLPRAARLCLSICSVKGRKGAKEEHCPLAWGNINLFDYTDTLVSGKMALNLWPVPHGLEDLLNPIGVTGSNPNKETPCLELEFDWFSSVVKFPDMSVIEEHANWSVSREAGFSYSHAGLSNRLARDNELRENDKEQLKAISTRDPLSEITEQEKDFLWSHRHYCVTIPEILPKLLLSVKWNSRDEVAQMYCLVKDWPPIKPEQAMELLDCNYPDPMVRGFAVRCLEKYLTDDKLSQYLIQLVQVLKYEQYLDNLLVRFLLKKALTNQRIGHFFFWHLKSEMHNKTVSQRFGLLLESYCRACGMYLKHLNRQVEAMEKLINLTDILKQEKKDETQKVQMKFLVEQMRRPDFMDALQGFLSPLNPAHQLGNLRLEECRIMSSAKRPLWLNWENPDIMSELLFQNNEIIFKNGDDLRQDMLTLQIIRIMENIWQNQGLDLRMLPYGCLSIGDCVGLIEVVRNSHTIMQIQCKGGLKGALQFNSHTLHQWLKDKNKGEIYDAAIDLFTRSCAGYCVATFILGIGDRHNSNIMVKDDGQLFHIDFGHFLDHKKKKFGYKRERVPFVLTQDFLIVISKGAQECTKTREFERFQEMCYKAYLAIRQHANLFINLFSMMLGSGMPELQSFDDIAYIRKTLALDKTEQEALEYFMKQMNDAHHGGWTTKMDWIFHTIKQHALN
T1 sequence (P27986 whole entry partner): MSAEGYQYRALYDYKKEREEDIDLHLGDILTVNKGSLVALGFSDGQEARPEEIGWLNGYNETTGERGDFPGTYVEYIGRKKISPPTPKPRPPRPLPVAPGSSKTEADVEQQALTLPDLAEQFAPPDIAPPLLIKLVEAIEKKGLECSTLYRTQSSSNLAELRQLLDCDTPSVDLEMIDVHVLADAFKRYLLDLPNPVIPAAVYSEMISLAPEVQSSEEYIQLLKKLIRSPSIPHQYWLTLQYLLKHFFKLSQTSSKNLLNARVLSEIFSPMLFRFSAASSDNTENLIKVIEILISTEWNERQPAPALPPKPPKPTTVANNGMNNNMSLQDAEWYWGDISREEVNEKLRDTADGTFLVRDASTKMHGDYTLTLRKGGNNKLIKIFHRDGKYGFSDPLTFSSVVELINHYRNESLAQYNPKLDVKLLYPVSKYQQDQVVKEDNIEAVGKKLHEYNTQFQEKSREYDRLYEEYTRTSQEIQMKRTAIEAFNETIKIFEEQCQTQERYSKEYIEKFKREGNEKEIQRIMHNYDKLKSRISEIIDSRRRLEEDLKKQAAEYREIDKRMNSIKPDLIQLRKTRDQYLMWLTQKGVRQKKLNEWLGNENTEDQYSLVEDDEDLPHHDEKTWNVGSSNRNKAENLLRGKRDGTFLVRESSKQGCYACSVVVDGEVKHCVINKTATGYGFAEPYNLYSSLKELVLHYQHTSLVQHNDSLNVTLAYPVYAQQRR

In the case of `CC(C)c1cnnc(Nc2ccc3ncc(-c4cnn(CCN5CC6(COC6)C5)c4)cc3n2)c1` [Example 0619, 7-(1-(2-(2-Oxa-6-azaspiro[3.3]heptan-6-yl)ethyl)-1H-pyrazol-4-yl)-N-(5-isopropylpyridazin-3-yl)-1,5-naphthyridine-2-amine], the IC50 (at human PI3Kα protein; in test [1]) was less than 1 µM each time.

For the compound `CC(C)c1cnnc(Nc2ccc3ncc(-c4cncs4)cc3n2)c1` [Example 0620], the IC50 (at human PI3Kα protein; in test [1]) was less than 1 µM in each case.

As to `Cc1n[nH]c(C)c1-c1cnc2ccc(Nc3cc(C(C)C)cnn3)nc2c1` [Example 0621], the results for the IC50 (on human PI3Kα protein; in test [1]) were 1 to 10 µM and less than 1 µM, respectively.

In the case of `CC(C)c1cnnc(Nc2ccc3ncc(-c4ccn[nH]4)cc3n2)c1` [Example 0622, N-(5-isopropylpyridazin-3-yl)-7-(1H-pyrazol-5-yl)-1,5-naphthyridine-2-amine], the IC50 (on human PI3Kα protein; in test [1]) was less than 1 µM throughout.

For the compound `CC(C)c1cnnc(Nc2ccc3ncc(N)cc3n2)c1` [Example 0623, N^2-(5-isopropylpyridazin-3-yl)-1,5-naphthyridine-2,7-diamine], the IC50 (at human PI3Kα protein; in test [1]) was 1 to 10 µM each time.

`Cc1nn(C)c(C)c1-c1cnc2ccc(Nc3cc(C(C)C)cnn3)nc2c1` [Example 0624, N-(5-isopropylpyridazin-3-yl)-7-(1,3,5-trimethyl-1H-pyrazol-4-yl)-1,5-naphthyridine-2-amine]: the IC50 at human PI3Kα protein was 1 to 10 µM; in test [1] it was less than 1 µM.

Take `CC(=O)Nc1cnc2ccc(Nc3cc(C(C)C)cnn3)nc2c1` [Example 0625, N-(6-((5-isopropylpyridazin-3-yl)amino)-1,5-naphthyridin-3-yl)acetamide]: the values for the IC50 (on human PI3Kα protein; in test [1]) were less than 1 µM and 1 to 10 µM, respectively.

As for `CC(C)c1cnnc(Nc2ccc3ncc(N(C)C)cc3n2)c1` [Example 0627, N^2-(5-isopropylpyridazin-3-yl)-N^7,N^7-dimethyl-1,5-naphthyridine-2,7-diamine], the results for the IC50 (on human PI3Kα protein; in test [1]) were 1 to 10 µM and less than 1 µM, respectively.

In the case of `CC(=O)N(C)c1cnc2ccc(Nc3cc(C(C)C)cnn3)nc2c1` [Example 0628, N-(6-((5-isopropylpyridazin-3-yl)amino)-1,5-naphthyridin-3-yl)-N-methylacetamide], the values for the IC50 (at human PI3Kα protein; in test [1]) were 10 to 50 µM and less than 1 µM, respectively.

On to `COCCC(=O)Nc1cnc2ccc(Nc3cc(C(C)C)cnn3)nc2c1` [Example 0632, N-(6-((5-isopropylpyridazin-3-yl)amino)-1,5-naphthyridin-3-yl)-3-methoxypropanamide], for which the IC50 on human PI3Kα protein was less than 1 µM; in test [1] it was 1 to 10 µM.

Turning to `Cn1cc(-c2cnc3ccc(Nc4cc(C5(C)CC5)cnn4)nc3c2)cn1` [Example 0633], the IC50 (at human PI3Kα protein; in test [1]) was less than 1 µM throughout.

As to `CC(C)c1cnnc(Nc2ccc3ncc(-c4cn(C)nc4C(F)(F)F)cc3n2)c1` [Example 0634], the IC50 (at human PI3Kα protein; in test [1]) was less than 1 µM throughout.

In the case of `CC(C)c1cnnc(Nc2ccc3ncc(-c4cn(C)nc4N)cc3n2)c1` [Example 0636, 7-(3-amino-1-methyl-1H-pyrazol-4-yl)-N-(5-isopropylpyridazin-3-yl)-1,5-naphthyridine-2-amine], the IC50 (at human PI3Kα protein; in test [1]) was less than 1 µM throughout.

For the compound `C=Cc1cnc2ccc(Nc3cc(C(C)C)cnn3)nc2c1` [Example 0638, N-(5-isopropylpyridazin-3-yl)-7-vinyl-1,5-naphthyridine-2-amine], the results for the IC50 (at human PI3Kα protein; in test [1]) were 1 to 10 µM and less than 1 µM, respectively.

Consider `CC(C)c1cnnc(Nc2ccc3ncc(C(=O)O)cc3n2)c1` [Example 0639, 6-((5-isopropylpyridazin-3-yl)amino)-1,5-naphthyridine-3-carboxylic acid], for which the values for the IC50 (at human PI3Kα protein; in test [1]) were 1 to 10 µM and 10 to 50 µM, respectively.

For the compound `CC(C)c1cnnc(Nc2ccc3ncc(C(N)=O)cc3n2)c1` [Example 0640, 6-((5-isopropylpyridazin-3-yl)amino)-1,5-naphthyridine-3-carboxamide], the results for the IC50 (at human PI3Kα protein; in test [1]) were 1 to 10 µM and less than 1 µM, respectively.

In the case of `CC(C)c1cnnc(Nc2ccc3ncc(-c4cnn(CCC5OCCCO5)c4)cc3n2)c1` [Example 0641, 7-(1-(2-(1,3-Dioxan-2-yl)ethyl)-1H-pyrazol-4-yl)-N-(5-isopropylpyridazin-3-yl)-1,5-naphthyridine-2-amine], the IC50 (at human PI3Kα protein; in test [1]) was less than 1 µM throughout.

As to `CNC(=O)c1cnc2ccc(Nc3cc(C(C)C)cnn3)nc2c1` [Example 0642], the IC50 was 1 to 10 µM at human PI3Kα protein and less than 1 µM in test [1].

`COC(CCn1cc(-c2cnc3ccc(Nc4cc(C(C)C)cnn4)nc3c2)cn1)OC` [Example 0646, 7-(1-(3,3-dimethoxypropyl)-1H-pyrazol-4-yl)-N-(5-isopropylpyridazin-3-yl)-1,5-naphthyridine-2-amine]: the IC50 (at human PI3Kα protein; in test [1]) was less than 1 µM each time.

As to `CC(C)c1cnnc(Nc2ccc3ncc(/C=C/c4cccnc4)cc3n2)c1` [Example 0648, (E)-N-(5-isopropylpyridazin-3-yl)-7-(2-(pyridin-3-yl)vinyl)-1,5-naphthyridine-2-amine], the IC50 (at human PI3Kα protein; in test [1]) was less than 1 µM each time.

For the compound `CC(C)c1cnnc(Nc2ccc3ncc(/C=C/c4ccncc4)cc3n2)c1` [Example 0652, (E)-N-(5-isopropylpyridazin-3-yl)-7-(2-(pyridin-4-yl)vinyl)-1,5-naphthyridine-2-amine], the IC50 (on human PI3Kα protein; in test [1]) was less than 1 µM each time.

Take `CC(C)c1cnnc(Nc2ccc3ncc(NC(=O)COCc4ccccc4)cc3n2)c1` [Example 0654, 2-(benzyloxy)-N-(6-((5-isopropylpyridazin-3-yl)amino)-1,5-naphthyridin-3-yl)acetamide]: the IC50 at human PI3Kα protein was less than 1 µM; in test [1], 1 to 10 µM.

For the compound `CC(C)c1cnnc(Nc2ccc3ncc(C(=O)NCCO)cc3n2)c1` [Example 0655, N-(2-hydroxyethyl)-6-((5-isopropylpyridazin-3-yl)amino)-1,5-naphthyridine-3-carboxamide], the IC50 (on human PI3Kα protein; in test [1]) was 1 to 10 µM throughout.

As for `CC(C)c1cnnc(Nc2ccc3ncc(/C=C/c4ccccn4)cc3n2)c1` [Example 0656, (E)-N-(5-isopropylpyridazin-3-yl)-7-(2-(pyridin-2-yl)vinyl)-1,5-naphthyridine-2-amine], the IC50 on human PI3Kα protein was less than 1 µM; in test [1] it was 1 to 10 µM.

Take `CC(C)c1cnnc(Nc2ccc3ncc(-c4cnn(CCCN5CCOC(C)(C)C5)c4)cc3n2)c1` [Example 0658]: the IC50 (on human PI3Kα protein; in test [1]) was less than 1 µM throughout.

For `COCCN(CCCn1cc(-c2cnc3ccc(Nc4cc(C(C)C)cnn4)nc3c2)cn1)CCOC` [Example 0660], the IC50 (on human PI3Kα protein; in test [1]) was less than 1 µM in each case.

In the case of `CC(C)c1cnnc(Nc2ccc3ncc(-c4cnn(CCCN(C)CC(=O)OC(C)(C)C)c4)cc3n2)c1` [Example 0661], the IC50 (on human PI3Kα protein; in test [1]) was less than 1 µM each time.

With `CC(C)c1cnnc(Nc2ccc3ncc(NC(=O)CO)cc3n2)c1` [Example 0662, 2-hydroxy-N-(6-((5-isopropylpyridazin-3-yl)amino)-1,5-naphthyridin-3-yl)acetamide], the IC50 is less than 1 µM on human PI3Kα protein and 1 to 10 µM in test [1].

Take `CC(C)c1cnnc(Nc2ccc3ncc(C(=O)NCCCO)cc3n2)c1` [Example 0663]: the IC50 (at human PI3Kα protein; in test [1]) was 1 to 10 µM in each case.

With `CC(C)c1cnnc(Nc2ccc3ncc(C(=O)NCCCCO)cc3n2)c1` [Example 0664], the IC50 (on human PI3Kα protein; in test [1]) was 1 to 10 µM each time.

Take `CC(C)c1cnnc(Nc2ccc3ncc(-c4cnn(CCCN5CC(C(=O)O)C5)c4)cc3n2)c1` [Example 0666]: the IC50 (at human PI3Kα protein; in test [1]) was less than 1 µM each time.

With `CC(C)c1cnnc(Nc2ccc3ncc(-c4cnn(CCCN(C)CC(=O)O)c4)cc3n2)c1` [Example 0667, 2-((3-(4-(6-((5-isopropylpyridazin-3-yl)amino)-1,5-naphthyridin-3-yl)-1H-pyrazol-1-yl)propyl) (methyl)amino)acetic acid], the IC50 (on human PI3Kα protein; in test [1]) was less than 1 µM each time.

For the compound `CC(C)c1cnnc(Nc2ccc3ncc(C(=O)Nc4ccncc4)cc3n2)c1` [Example 0669], the IC50 (at human PI3Kα protein; in test [1]) was 1 to 10 µM in each case.

`CC(C)c1cnnc(Nc2ccc3ncc(-c4cnn(CCCN5CC(C(N)=O)C5)c4)cc3n2)c1` [Example 0670]: the IC50 (on human PI3Kα protein; in test [1]) was less than 1 µM in each case.

As for `CC(C)c1cnnc(Nc2ccc3ncc(-c4cnn(CCCN(C)CC(N)=O)c4)cc3n2)c1` [Example 0671], the IC50 (on human PI3Kα protein; in test [1]) was less than 1 µM in each case.

For `CC(C)c1cnnc(Nc2ccc3ncc(-c4cnn(CCCN5CCCCC5C(F)(F)F)c4)cc3n2)c1` (stereo not shown) [Example 0672], the IC50 (at human PI3Kα protein; in test [1]) was less than 1 µM throughout.

Consider `CC(C)c1cnnc(Nc2ccc3ncc(-c4cnn(CCCN5CCC(C(F)(F)F)CC5)c4)cc3n2)c1` [Example 0673], for which the IC50 (at human PI3Kα protein; in test [1]) was less than 1 µM each time.

For the compound `CC1CN(CCCn2cc(-c3cnc4ccc(Nc5cc(C(C)C)cnn5)nc4c3)cn2)C(C)CO1` (stereo not shown) [Example 0674], the IC50 (on human PI3Kα protein; in test [1]) was less than 1 µM each time.
